# Source: patent US20050215490A1, “Polyene polyketides and methods of treating bacterial infections” (Ecopia BioSciences, Inc., priority 2003, published 2005)
# Read-outs that look alike come from different tables or passages of the source.
# Columns and labels:
# CD-1 female mice = assay: in vivo; details: CD-1, mouse
# Experimental: A. Toxicity: Acute toxicities were determined using CD-1 female mice (supplied by Charles River Laboratories, Wilmington, Mass.) having a bodyweight of 18-25 g, and about 6 weeks of age. Compounds 1 and 2 at doses ranging from 1 to 70 mg/kg (formulated in 20% propylene glycol/water for a total volume of 10 μL/g of weight) were administered intraperitoneal (i.p.) and intravenous (i.v.) to groups of 5 mice (5 mice per concentration, per mode of administration). Two groups of 3 mice were injected with vehicle only. Mice were observed immediately after injection, within 4 hours and once a day for the subsequent days. Acute toxicity studies of Compound 1 in mice indicated no observable effect and high dose tolerability: 70 mg/kg intraperitoneal and 50 mg/kg intravenous (an MTD of 250 mg/kg was also determined by oral administration). […] In vitro Haemolytic activity results are also shown in Table 7, along with the in vivo toxicity and efficacy of Compound 1.
# [1] = system: Enterococcus faecalis VRE-1 (ATCC™ 29212); assay: MIC, broth microdilution (NCCLS M7-A5); format: cell-based; details: E. faecalis ATCC 29212, BHI, 35° C., 18 hours, read-out: MIC
# Experimental: (§1) Antibacterial activity of Compounds 1 and 2 (Table 4) was measured by determining the minimal inhibitory concentration (MIC) necessary to obtain a complete inhibition of bacteria growth in eight indicator strains, namely Staphylococcus aureus (ATCC™ 6538P), Staphylococcus aureus MRS3 (ATCC™ 700699), Staphylococcus epidermidis (ATCC™ 12228), Bacillus subtilis (ATCC™ 23857), Bacillus megaterium (ATCC™ 14581), Enterococcus faecalis VRE-1 (ATCC™ 29212), Enterococcus faecalis VRE-2 (ATCC™ 51299) and Micrococcus luteus (ATCC™ 9341). Indicator strains preparation and MIC determination were performed according to the National Committee for Clinical Laboratory Standards (NCCLS) guideline M7-A5 Methods for Dilution Antimicrobial Susceptibility Tests for Bacteria That Grow Aerobically; Approved Standard-Fifth Edition. (NCCLS document M7-A5, ISBN 1-56238-394-9; NCCLS, 940 West Valley Road, Suite 1400, Wayne, Pa. 19087-1898 USA), the content of which is incorporated herein by reference.
# (§2) Compounds 1 and 2 were prepared as 100× stock solution in DMSO, with concentrations ranging from 3.2 mg/ml to 0.00625 mg/ml (a two-fold dilution series over […]). An aliquot of each 100× stock solution was diluted 50-fold in test medium described below to give a set of ten (10) 2× solutions ranging from 64 to 0.125 μg/mL. 50 μl of each of the ten 2× solutions was aliquoted into the corresponding well of a 12-well row, with the final well reserved for medium alone control. Each test was made in duplicate.
# (§3) Vancomycin (Sigma™) used as positive control compounds, was prepared as 2× stock solutions in sterile, double-distilled water (ddH2O) ranging from 64 μg/ml to […] (a two-fold dilution series over 10 points). An aliquot of 50 μl corresponding to each concentration (at 2×) was then transferred to 96-well microplates to obtain a series of eleven two-fold dilutions.
# (§4) An isolated colony of each of the eight indicator strains was used to inoculate tubes containing 3 ml of test medium. Mueller-Hinton test medium was used for Staphylococcus aureus (ATCC™ 6538P), Staphylococcus aureus MRS3 (ATCC™ 700699), Staphylococcus epidermidis (ATCC™ 12228), Bacillus subtilis (ATCC™ 23857), Bacillus megaterium (ATCC™ 14581) and Micrococcus luteus (ATCC™ 9341) indicator strains, and BHI (Brain-Heart Infusion broth) test medium was used for Enterococcus faecalis VRE-1 (ATCC™ 29212) and Enterococcus faecalis VRE-2 (ATCC™ 51299) indicator strains. Cells were grown overnight at 28° C. with shaking. Inoculum density for each indicator strain was adjusted to OD600=0.1 in 5 ml 0.85% saline, then further diluted 1/100 in appropriate medium. 50 μl of the final dilution (in test medium) of each indicator strain was added to each well of a 12-well row. This brings the final dilution of the test article or control compound in solution to 1×. The final inoculum is approximately 5×10^5 CFU/ml.
# (§5) The indicator strains were incubated with 11 concentrations of each of Compounds 1 and 2, Vancomycin (Sigma™) control compound and one media alone control. For MIC determination, assay plates were incubated at 35° C. for 18 hours.
# [2] = system: Bacillus subtilis (ATCC™ 23857); assay: MIC, broth microdilution (NCCLS M7-A5); format: cell-based; details: ATCC23857, B. subtilis ATCC 23857, Mueller-Hinton, 35° C., 18 hours, read-out: MIC
# Experimental: as §1, §2, §3, §4, §5
# [3] = system: S. epidermidis (ATCC™ 12228); assay: Minimal bactericidal concentration (NCCLS M26-A); format: cell-based, Staphylococcus epidermidis; details: for MBC: Staphylococcus epidermidis, more than 99.9% growth inhibition
# Experimental: (§6) Minimal bactericidal concentration (MBC) was also determined for Compounds 1 and 2. […] MBC were measured against three Staphylococcus strains, namely sp. aureus MSSA (ATCC™ 6538P), sp. aureus MRSA-hVISA (ATCC™ 700699) and sp. epidermidis (ATCC™ 12228). The results, shown in Table 6 below, were consistent with bactericidal activity (MBC/MIC ratio were of 1 to 2).
# (§7) MBC determination was performed according to the NCCLS guideline M26-A: Methods for Determining Bactericidal Activity of Antimicrobial Agents (NCCLS document […], ISBN 1-56238-394-9; NCCLS, 940 West Valley Road, Suite 1400, Wayne, Pa. 19087-1898 USA), the content of which is incorporated herein by reference.
# (§8) Microdilutions broth assays were performed using the same procedure as for MIC determination, Example 6. 24 hours post-incubation, cells were collected in wells corresponding to the MIC, 2×MIC and 4×MIC. Collected cells were plated on agar media. MBC were determined as the drug concentration at which more than 99.9% growth inhibition was observed. As a reference for 100% growth, cells grown in media only were also plated.
# [4] = system: Staphylococcus aureus NRRL B-313 (ATCC™ 6538P); assay: MIC at different pH; format: cell-based; details: S. aureus ATCC 6538P
# Experimental: Antibacterial activitiy of Compounds.3, 4, 5, 6 and 7 are accomplished using the same method in a panel of bacterial strains and Vancomycin as positive control.
# Antibacterial efficacy of Compounds 1, 2, 3, 4, 5 and 6 on bacterial strain Staphylococcus aureus NRRL B-313 (ATCC™ 6538P) was determined at different pH concentrations.
# [5] = system: S. aureus MRSA-hVISA (ATCC™ 700699); assay: Minimal bactericidal concentration (NCCLS M26-A); format: cell-based, Staphylococcus aureus; details: for MBC: Staphylococcus aureus, more than 99.9% growth inhibition
# Experimental: as §6, §7, §8
# [6] = system: S. aureus MSSA (ATCC™ 6538P); assay: Minimal bactericidal concentration (NCCLS M26-A); format: cell-based, Staphylococcus aureus; details: for MBC: Staphylococcus aureus, more than 99.9% growth inhibition
# Experimental: as §6, §7, §8
SMILES,Acute toxicity: dose with no observable effect (high dose tolerability) (CD-1 female mice; ip) [mg/kg],Acute toxicity: dose with no observable effect (high dose tolerability) (CD-1 female mice; iv) [mg/kg],MIC [1] [µg/mL],MIC [2] [µg/mL],MBC/MIC [3],MBC [3] [µg/mL],"MIC ([4]; pH 5.0, read-out: MIC) [µg/mL]","MIC ([4]; pH 6.0, read-out: MIC) [µg/mL]","MIC ([4]; pH 7.0, read-out: MIC) [µg/mL]",MBC/MIC [5],MBC [5] [µg/mL],MBC/MIC [6],MBC [6] [µg/mL]
"CC(=CC=CC=CC=CC=CC(C)C(OC1OC(C(=O)O)C(O)C(O)C1O)C(C)=CC(C)CCCC=CC(C)CC=CCCCN(C)C(=N)N)C(=O)NC1=C(O)CCC1=O (stereo not shown) [Compound 1, 3,4,5-trihydroxy-6-[1-[11-(2-hydroxy-5-oxocyclopent-1-enylcarbamoyl)-1-methyldodeca-2,4,6,8,10-pentaenyl]-2,4,10-trimethyl-16-(N-methyl-guanidino)-hexadeca-2,8,12-trienyloxy]-tetrahydropyran-2-carboxylic acid]",70,50,8 to 16,1,1,4,0.125,0.25,1,1,4,2,4
"C\C(=C/C=C/C=C/C=C/C=C/C(C)C(OC1OC(C(=O)O)C(O)C(O)C1O)/C(C)=C/C(C)CCC/C=C/C(C)C/C=C/CCCNC(=N)N)C(=O)NC1=C(O)CCC1=O (stereo not shown) [Compound 2, 6-{16-guanidino-1-[11-(2-hydroxy-5-oxocyclopent-1-enylcarbamoyl)-1-methyldodeca-2,4,6,8,10-pentaenyl]-2,4,10-trimethylhexadeca-2,8,12-trienyloxy}-3,4,5-trihydroxy-tetrahydro-pyran-2-carboxylic acid]",–,25,16,2,1,1,0.0625,0.125,1,2,2,2,2
